# Measured values reported in PMC11203957, “Naphthoquinone-Quinolone Hybrids with Antitumor Effects on Breast Cancer Cell Lines—From the Synthesis to 3D-Cell Culture Effects” (International Journal of Molecular Sciences, 2024).
# Tests used:
# [1] = system: MCF-7 human breast cancer cells; parameters: method as in PMID 33039723; settings: cited from earlier work
# MCF-7 cells = test: Annexin V/PI apoptosis assay, MCF-7; type: cell-based, human; settings: 50 µM
# Description: (§1) We investigated apoptosis induction through the annexin V/PI protocol, as described in Section 3. Doxorubicin, 1,4-naphthoquinone, and cisplatin were used as controls. […] For MDA-MB-231 cells (Figure 5B), the effects observed were more prominent at the concentrations tested.
# (§2) For the apoptosis assay, the manufacturer’s instructions were followed (Dead Cell Apoptosis Kit with Annexin V for Flow Cytometry, Thermo Fisher Scientific, MA, USA). The cells were analyzed in a Countess II FL cell counter (Thermo Fisher Scientific, Waltham, MA, USA).
# (§3) Figure 5 Naphthoquinone-quinolone hybrids induce apoptosis in MCF-7 (A) and MDA-MB-231 (B) cells at different levels.
# [2] = system: cervix adenocarcinoma (HeLa); parameters: method as in PMID 22406451; settings: cited from earlier work
# [3] = system: hepatocellular carcinoma (BEL7402); parameters: method as in PMID 22406451; settings: cited from earlier work
# MDA-MB-231 cells [4] = test: Annexin V/PI apoptosis assay, MDA-MB-231; type: cell-based, human; settings: 50 µM
# Description: as §1, §2, §3
# MDA-MB-231 [5] = test: MTT cell viability assay, MDA-MB-231 (2D culture); type: cell-based, human; settings: for IC50: Homo sapiens, MDA-MB-231, MTT, 24 h treatment, 2D culture, read-out: IC50 ± SEM MDA-MB-231; for SI IC50 MCF10A/ IC50 MDA-MB-231: selectivity index
# Description: (§4) Our first approach to assessing the anticancer activity of the novel 1,4-naphthoquinone/4-quinolone conjugates 11a–f on breast cancer cells involved comparing their effects in the MTT cell viability assay to determine the half-maximal inhibitory concentration (IC50) in the 2D cell culture model. Doxorubicin and 1,4-naphthoquinone were used as controls. Concentration-response curves were obtained with the conjugates at concentrations ranging from 0 to 200 µM. […] This observation aligns with the structural characteristics of this derivative, which features the largest alkyl substituent at position R^1.
# (§5) The IC50 values were calculated using GraphPad Prism v. 8.0.1, and the selectivity index was estimated as the ratio between the IC50 value of MCF10A/IC50 value of MDA-MB-231 or MCF-7 [33], for each compound.
# MCF-7 spheroids = test: 3D-cell culture (spheroids), morphology and acid phosphatase viability, MCF-7; type: cell-based, human; settings: 25 µM, 48 h
# Text: 3D-cell cultures display features that resemble in vivo tumors: due to their tridimensional structure, cells are not provided with the same amounts of oxygen and nutrients in the center as on the surface, resulting in a gradient that leads to the formation of a necrotic core, similar to the in vivo tumor environment. In the 3D-cell culture model used here, spheroids are formed due to low interaction with the microplate bottom, promoted by its coating with agarose, and strong cell-to-cell interactions in MCF-7 cells, generating a finely compact and homogeneous spheroid. For MDA-MB-231 cells, the addition of collagen I is an extra stimulus necessary for spheroid stabilization. Spheroids were prepared and grown for 48 h and then treated with the compounds at 25 µM. After 48 h, morphological changes were observed, and their viabilities were measured as described in Section 3. The exposure to the compounds for 48 h promoted visible changes in the morphologies of spheroids for both cell lines when compared to the controls (Figure 8). […] While it is more complicated to imply changes in the proliferative (surface) region of the MDA-MB-231 spheroids (Figure 8B), they are observed together with morphological changes after treatment, making them appear more crumbly and lose their round shape. These findings are in line with the viability test, which detected a reduction in the viabilities for all of them, which is significant compared to the control (p < 0.05), except for 11a in MDA-MB-231 spheroids (Figure 8C,D). We should also highlight that the concentrations necessary for an effect on spheroids are expected to be higher when compared to 2D-cell culture models. Here, we observed changes using 25 µM of each compound, as performed in the other experiments.
# The procedure was performed as described by Gong et al., with a few modifications. A total of 5000 cells per well were plated on 96-well plates with bottoms previously covered with 50 µL of a 1% agarose solution. The plates were then centrifuged at 300× g for 10 min. For MDA-MB-231 cells, collagen I from rat tail (Gibco) was added to a 3 µg/mL final concentration in the cell suspension. […] The cell spheroids/aggregates were treated with fresh medium added to the compounds and their viability was evaluated after 48 h. Spheroids were photographed with an inverted microscope Bel INV-100 (Bel Engineering, Monza, Italy) equipped with a digital camera.
# To measure spheroids viability, this viability assay was performed following Friedrich et al.. The medium was removed from wells and spheroids were washed with PBS. Then, 100 µL of a solution containing 2 mg/mL p-nitrophenyl phosphate (PNPP), 0.1 M citric acid, and 0.1% (v/v) Triton X, pH 5.0 were added. […]
# MCF-7 [6] = test: MTT cell viability assay, MCF-7 (2D culture); type: cell-based, human; settings: for IC50: Homo sapiens, MCF7, MTT, 24 h treatment, 2D culture, read-out: IC50 ± SEM MCF-7; for SI IC50 MCF10A/IC50 MCF-7: selectivity index
# Description: as §4, §5
# [7] = system: gastric cancer cells ACP03; parameters: method as in PMID 24858098; settings: cited from earlier work
# MCF10A = test: MTT cell viability assay, non-tumor MCF10A; settings: for IC50: Homo sapiens, MCF-10A, 24 h, read-out: IC50 ± SEM MCF10A
# tumor = system: tumor; parameters: method as in PMID 18974148; settings: 2 mg/kg (body weight), three weeks of treatment; cited from earlier work
# [8] = system: refractory invasive prostate cancer cells (DU145); parameters: method as in PMID 18974148; settings: cited from earlier work
# [9] = system: non-tumorigenic prostate epithelial cells (RWPE-1); settings: cited from earlier work
# MDA-MB-231 spheroids = test: 3D-cell culture (spheroids), morphology and acid phosphatase viability, MDA-MB-231; type: cell-based, human; settings: 25 µM, vs control, p < 0.05
# Text: 3D-cell cultures display features that resemble in vivo tumors: due to their tridimensional structure, cells are not provided with the same amounts of oxygen and nutrients in the center as on the surface, resulting in a gradient that leads to the formation of a necrotic core, similar to the in vivo tumor environment. In the 3D-cell culture model used here, spheroids are formed due to low interaction with the microplate bottom, promoted by its coating with agarose, and strong cell-to-cell interactions in MCF-7 cells, generating a finely compact and homogeneous spheroid. For MDA-MB-231 cells, the addition of collagen I is an extra stimulus necessary for spheroid stabilization. Spheroids were prepared and grown for 48 h and then treated with the compounds at 25 µM. After 48 h, morphological changes were observed, and their viabilities were measured as described in Section 3. […] These findings are in line with the viability test, which detected a reduction in the viabilities for all of them, which is significant compared to the control (p < 0.05), except for 11a in MDA-MB-231 spheroids (Figure 8C,D). […]
# The procedure was performed as described by Gong et al., with a few modifications. […] The cell spheroids/aggregates were treated with fresh medium added to the compounds and their viability was evaluated after 48 h. […]
# MDA-MB-231 cells [10] = test: Clonogenic assay, MDA-MB-231; type: cell-based, human; settings: 25 µM, 24 h treatment, about 14 days growth
# Text: The clonogenic assay is an effective tool for investigating individual cells’ ability to form colonies. Tumor cells with the ability to generate an expanding family of descendants are clonogenic. Therefore, a clonogenic assay is a simple method to verify one of the important characteristics of cancer cells, which is the ability to detach from the site of origin and to form metastases in other locations. […] For instance, 90–99% of the tumor cells in FaDU tumors, a type of human squamous cell carcinoma observed in nude mice, are non-clonogenic. To achieve the main goal of cancer treatment, which is tumor eradication, it is necessary to inactivate all clonogenic cells through either cell killing or the induction of a permanent state of dormancy, thereby eliminating their clonogenic capacity. The assessment of the potential of a drug to achieve a curative outcome, i.e., effectively neutralizing clonogenic tumor cells, requires the utilization of experimental endpoints that accurately reflect the response of clonogenic cells. Clonogenic endpoints hold particular significance when novel anticancer agents are incorporated into curative therapeutic regimens, such as in combination with radiotherapy or chemotherapy. Thus, clonogenic assays were conducted for compounds 11a–f and 1,4-naphthoquinone.
# Figure 6 The inhibition of colony formation by compounds 11a–f using MCF-7 (A,C) and MDA-MB-231 (B,D) cell lines. Cells were treated with derivatives 11a–f at 25 µM for 24 h. Subsequently, 400 cells were plated on 6-well plates for approximately 14 days. Then, cells were stained with crystal violet dye to visualize the colonies formed.
# [11] = system: colorectal cancer cells (HCT-15); parameters: method as in PMID 23651559, PMID 25457491; settings: cited from earlier work
# [12] = system: MKN-74 cocultured with stromal cells Hs738; parameters: method as in PMID 23632919; settings: coculture with stromal cells; cited from earlier work
# [13] = system: HCT-15 cocultured with stromal cells CCd-18Co; parameters: method as in PMID 23632919; settings: coculture with stromal cells; cited from earlier work
# [14] = system: human gastric cancer cells (MKN-74); parameters: method as in PMID 23651559, PMID 25457491; settings: cited from earlier work
# [15] = Solubility in the culture medium (inferred from MTT curves); type: physicochemical; settings: concentrations >25 µM
# Description: as §4
# MCF-7 [16] = system: MCF-7; parameters: method as in PMID 30129412; settings: cited from earlier work
# 4T1 = system: 4T1; parameters: method as in PMID 30129412; settings: cited from earlier work
# [17] = system: non-cancerous cell line MCF10A; parameters: method as in PMID 30129412; settings: cited from earlier work
# MDA-MB-231 [18] = system: MDA-MB-231; parameters: method as in PMID 30129412; settings: cited from earlier work
# [19] = low concentrations (<25 µM), effect plateaus above 25 µM
structure (smiles),measurement,setting,value
Cc1ccc(NC(=O)c2ccc(NC3=C(Cl)C(=O)c4ccccc4C3=O)cc2)nc1 [Compound 7],cytotoxicity against MCF-7,[1],high cytotoxicity
"COc1cccc2c1C(=O)c1c(O)c3c(c(O)c1C2=O)C[C@@](O)(C(=O)CO)C[C@@H]3O[C@H]1C[C@H](N)[C@H](O)[C@H](C)O1 [Doxorubicin, reference compound]","early apoptosis induction (annexin V/PI), MCF-7",MCF-7 cells,shows early apoptosis but also shows late apoptosis/necrosis in a great proportion
same,IC50,[2],21.1 ± 1.9 µM
same,IC50,[3],19.3 ± 1.2 µM
same,"apoptosis profile (annexin V/PI), MDA-MB-231",MDA-MB-231 cells [4],effects similar to those seen on MCF-7 cells
same,IC50,MDA-MB-231 [5],2.76 ± 1.2 µM
same,SI IC50 MCF10A/ IC50 MDA-MB-231,MDA-MB-231 [5],0.54 ± 0.10
same,"spheroid morphology, MCF-7",MCF-7 spheroids,changes in the morphology
same,IC50,MCF-7 [6],14.2 ± 1.1 µM
same,SI IC50 MCF10A/IC50 MCF-7,MCF-7 [6],0.10 ± 0.09
same,IC50,[7],274 nM
same,IC50,MCF10A,1.49 ± 1.3 µM
CC1=CC(=O)c2c(O)cccc2C1=O [plumbagin],tumor reduction,tumor,90%
same,apoptosis induction in DU145,[8],selectively induces apoptosis
same,effect on RWPE-1,[9],without affecting
"CCOC(=O)c1cn(CC)c2ccc(C3=CC(=O)c4ccccc4C3=O)cc2c1=O [Compound 11a, Ethyl 6-(1,4-dioxo-1,4-dihydronaphthalen-2-yl)-1-ethyl-4-oxo-1,4-dihydroquinoline-3-carboxylate]","early apoptosis induction (annexin V/PI), MCF-7",MCF-7 cells,comparable
same,"spheroid viability (acid phosphatase), MDA-MB-231",MDA-MB-231 spheroids,"significant decrease was observed for all compounds, except for 11a"
same,IC50,MDA-MB-231 [5],9.16 ± 1 µM
same,SI IC50 MCF10A/ IC50 MDA-MB-231,MDA-MB-231 [5],1.15 ± 0.15
same,"spheroid morphology, MCF-7",MCF-7 spheroids,changes in the morphology
same,IC50,MCF-7 [6],18.7 ± 1.1 µM
same,SI IC50 MCF10A/IC50 MCF-7,MCF-7 [6],0.57 ± 0.12
same,IC50,MCF10A,10.6 ± 1.2 µM
same,cytotoxicity effect in MCF10A compared with doxorubicin,MCF10A; relative to doxorubicin,seven times lower
same,"colony formation, MDA-MB-231",MDA-MB-231 cells [10],most effective
"CSC(=NCn1c(C/C=C(\C)CCC=C(C)C)cc(=O)c2ccccc21)SC [Compound 4, intervenolin]",IC50,[11],3.7 µM
same,IC50,[12],400 nM
same,IC50,[13],500 nM
same,IC50,[14],7 µM
"O=C1C=C(c2ccc3c(c2)c(=O)c(C(=O)O)cn3Cc2ccccc2)C(=O)c2ccccc21 [Compound 11e, 1-benzyl-6-(1,4-dioxo-1,4-dihydronaphthalen-2-yl)-4-oxo-1,4-dihydroquinoline-3-carboxylic acid]",melting point,,> 300 °C
same,"anticancer activity in MTT concentration-response curve, MDA-MB-231",MDA-MB-231 [5]; [19],comparable to the most active derivatives at low concentrations
same,"anticancer activity in MTT concentration-response curve, MCF-7",MCF-7 [6]; [19],comparable to the most active derivatives at low concentrations
same,solubility in the medium,[15],low solubility
CCOC(=O)c1cn(CC)c2ccc(-n3cc(COC4=C(CC=C(C)C)C(=O)c5ccccc5C4=O)nn3)cc2c1=O [Compound 10],activity against MCF-7,MCF-7 [16],demonstrated activity
same,activity against 4T1,4T1,demonstrated activity
same,cytotoxicity against MCF10A,[17],no significant cytotoxicity
same,activity against MDA-MB-231,MDA-MB-231 [18],demonstrated activity
